Measurements from patent US20020198379A1, “Active compound from a sponge” (Pharma Mar, s.a., priority 1993, published 2002).
In brackets after ≈: the same amount, converted by molar mass.

Assays:
LD50 i.p. in mice = conditions: mouse, in vivo, ip
P-388 = assay: in vitro antitumor activity, P-388 tumour cells; assay type: cell-based; conditions: Mus musculus, P388
[1] = system: human lung carcinoma A-549; assay: in vitro antitumor activity, A-549 tumour cells; assay type: cell-based; conditions: A549
Procedure: (§1) The antitumor activities of this compound have been determined “in vitro” in cell cultures of human lung carcinoma A-549 and human colon carcinoma HT-29. The procedure was carried out using the methodology described by Raymond J. Bergeron et al. Biochem. Bioph. Res. Comm. 1984, 121(3), 848-854 and by Alan C. Schroeder et al. J. Med. Chem. 1981, 24 1078-1083.
(§2) The compound is active against the following tumour cells at the inhibiting concentrations noted: […]

[2] = system: human colon carcinoma HT-29; assay: in vitro antitumor activity, HT-29 tumour cells; assay type: cell-based
Procedure: as §1, §2

KB = assay: in vitro antitumor activity, KB tumour cells; assay type: cell-based; conditions: Homo sapiens
S. aureus = assay: antibiotic disk assay, S. aureus; assay type: cell-based; conditions: 10 μg/disk
B. subtilis = assay: antibiotic disk assay, B. subtilis; assay type: cell-based; conditions: 10 μg/disk
Penicillium notatum = assay: antifungal disk assay, Penicillium notatum; assay type: cell-based; conditions: Penicillium chrysogenum, 50 μg/disk
[3] = system: mixed lymphocyte reaction (MLR); assay: mixed lymphocyte reaction (MLR); assay type: cell-based; conditions: read-out: IC
[4] = system: primary culture of murine lymphocytes; assay: cytotoxicity assay against primary culture of murine lymphocytes; assay type: cell-based; conditions: Mus musculus, Lymphocyte
pH stability = assay type: physicochemical
Procedure: Palau'amine was isolated from the sponge as follows. Extraction of the lyophilized sponge (600 g) with MeOH (6 L) and dissolution of the water soluble residue after evaporation yielded 900 ml of an aqueous extract. [The dust from the lyophilized sponge caused a powerful allergic reaction, which entailed severe shortness of breath for about four hours; the effect largely disappeared within 24 hours]. […] Repeated LH-20 chromatography (MeOH) of the 0.5 fraction, after desalting by dissolving in EtOH, furnished essentially pure palau'amine, presumably as the hydrochloride, (14 mg, 0.01% dry weight) as an optically active, off-white amorphous powder that decomposed prior to melting. Further purification of palau'amine could be effected by HPLC [YMC aqueous C18, H2O/MeCN (90:10), 0.1% TFA].

## NC[C@H]1[C@H]2CN3C(=O)c4cccn4[C@H]4N=C(N)NC43[C@H]2[C@@]2(N=C(N)N[C@@H]2O)[C@@H]1Cl (stereo partly drawn) [palau'amine]
LD50 i.p. in mice
  LD50: 13 mg/kg
P-388
  IC50: 0.1 µg/mL (≈ 0.238 µM)
[1]
  IC50: 0.2 µg/mL (≈ 0.476 µM)
[2]
  IC50: 2 µg/mL (≈ 4.76 µM)
KB
  IC50: 10 µg/mL (≈ 23.8 µM)
S. aureus
  antibiotic activity: antibiotic activity
B. subtilis
  antibiotic activity: antibiotic activity
Penicillium notatum
  zone of inhibition at 50 µg/disc: 24 mm
[3]
  IC50: < 0.018 µg/mL
[4]
  IC50: 1.5 µg/mL (≈ 3.57 µM)
pH stability; >pH 6.5
  stability >pH 6.5: decomposes rapidly
pH stability; in acid
  stability in acid: quite stable
